Legend:
Assay in all cases: relative viability (nuclei count vs DMSO), 5 days (fraction); higher = more cells survive
Everolimus + Palbociclib = compound: CO[C@H]1C[C@@H]2CC[C@@H](C)[C@@](O)(O2)C(=O)C(=O)N2CCCC[C@H]2C(=O)O[C@H]([C@H](C)C[C@@H]2CC[C@@H](OCCO)[C@H](OC)C2)CC(=O)[C@H](C)/C=C(\C)[C@@H](O)[C@@H](OC)C(=O)[C@H](C)C[C@H](C)/C=C/C=C/C=C/1C [Everolimus] + CC(=O)c1c(C)c2cnc(Nc3ccc(N4CCNCC4)cn3)nc2n(C2CCCC2)c1=O [Palbociclib] (partner 0.5 µM)
In short: (§1)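 Each reported value is a median over duplicate plates. It expresses relative viability: treated-well nuclei count divided by vehicle-well nuclei count. Lung cancer cell lines in 1536-well plates were dosed by pin tool a day after seeding, alone with one drug or with a fixed anchor-drug dose plus five library-drug doses (not always all listed) in √10 steps, and nuclei were counted after 5 days.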

Everolimus + Pictilisib = compound: CO[C@H]1C[C@@H]2CC[C@@H](C)[C@@](O)(O2)C(=O)C(=O)N2CCCC[C@H]2C(=O)O[C@H]([C@H](C)C[C@@H]2CC[C@@H](OCCO)[C@H](OC)C2)CC(=O)[C@H](C)/C=C(\C)[C@@H](O)[C@@H](OC)C(=O)[C@H](C)C[C@H](C)/C=C/C=C/C=C/1C [Everolimus] + CS(=O)(=O)N1CCN(Cc2cc3nc(-c4cccc5[nH]ncc45)nc(N4CCOCC4)c3s2)CC1 [Pictilisib] (partner 1 µM)
In short: as §1

Everolimus + Luminespib = compound: CO[C@H]1C[C@@H]2CC[C@@H](C)[C@@](O)(O2)C(=O)C(=O)N2CCCC[C@H]2C(=O)O[C@H]([C@H](C)C[C@@H]2CC[C@@H](OCCO)[C@H](OC)C2)CC(=O)[C@H](C)/C=C(\C)[C@@H](O)[C@@H](OC)C(=O)[C@H](C)C[C@H](C)/C=C/C=C/C=C/1C [Everolimus] + CCNC(=O)c1noc(-c2cc(C(C)C)c(O)cc2O)c1-c1ccc(CN2CCOCC2)cc1 [Luminespib] (partner 0.01 µM)
In short: as §1

Everolimus + OSI-027 = compound: CO[C@H]1C[C@@H]2CC[C@@H](C)[C@@](O)(O2)C(=O)C(=O)N2CCCC[C@H]2C(=O)O[C@H]([C@H](C)C[C@@H]2CC[C@@H](OCCO)[C@H](OC)C2)CC(=O)[C@H](C)/C=C(\C)[C@@H](O)[C@@H](OC)C(=O)[C@H](C)C[C@H](C)/C=C/C=C/C=C/1C [Everolimus] + COc1cccc2cc(-c3nc([C@H]4CC[C@H](C(=O)O)CC4)n4ncnc(N)c34)[nH]c12 [OSI-027] (partner 0.5 µM)
In short: as §1

Row | Cell Line | relative viability (Everolimus + Palbociclib; first compound 0.01 µM) | relative viability (Everolimus + Palbociclib; first compound 0.03162 µM) | relative viability (Everolimus + Palbociclib; first compound 0.1 µM) | relative viability (Everolimus + Palbociclib; first compound 0.3162 µM) | relative viability (Everolimus + Palbociclib; first compound 1 µM) | relative viability (Everolimus + Pictilisib; first compound 0.01 µM) | relative viability (Everolimus + Pictilisib; first compound 0.03162 µM) | relative viability (Everolimus + Pictilisib; first compound 0.1 µM) | relative viability (Everolimus + Pictilisib; first compound 0.3162 µM) | relative viability (Everolimus + Pictilisib; first compound 1 µM) | relative viability (Everolimus + Luminespib; first compound 0.01 µM) | relative viability (Everolimus + Luminespib; first compound 0.03162 µM) | relative viability (Everolimus + Luminespib; first compound 0.1 µM) | relative viability (Everolimus + Luminespib; first compound 0.3162 µM) | relative viability (Everolimus + Luminespib; first compound 1 µM) | relative viability (Everolimus + OSI-027; first compound 0.01 µM) | relative viability (Everolimus + OSI-027; first compound 0.03162 µM) | relative viability (Everolimus + OSI-027; first compound 0.1 µM) | relative viability (Everolimus + OSI-027; first compound 0.3162 µM) | relative viability (Everolimus + OSI-027; first compound 1 µM)
1 | NCI-H1993 | 0.495 | 0.436 | 0.489 | 0.493 | 0.408 | 0.793 | 0.739 | 0.715 | 0.786 | 0.86 | 0.528 | 0.459 | 0.366 | 0.456 | 0.58 | 0.566 | 0.554 | 0.53 | 0.529 | 0.553
2 | NCI-H1793 | 0.219 | 0.19 | 0.246 | 0.214 | 0.166 | 0.225 | 0.222 | 0.141 | 0.237 | 0.19 | 0.151 | 0.149 | 0.139 | 0.152 | 0.113 | 0.236 | 0.189 | 0.185 | 0.21 | 0.185
3 | NCI-H1395 | 0.482 | 0.444 | 0.466 | 0.515 | 0.429 | 0.571 | 0.548 | 0.508 | 0.5 | 0.496 | 0.581 | 0.522 | 0.532 | 0.449 | 0.537 | 0.596 | 0.555 | 0.544 | 0.482 | 0.54
4 | HCC-827 | 0.459 | 0.409 | 0.331 | 0.479 | 0.277 | 0.957 | 0.875 | 0.781 | 0.863 | 0.611 | 0.346 | 0.33 | 0.204 | 0.203 | 0.199 | 0.624 | 0.613 | 0.596 | 0.482 | 0.47
5 | ChaGo-K-1 | 0.798 | 0.806 | 0.802 | 0.768 | 0.914 | 0.653 | 0.382 | 0.634 | 0.494 | 0.666 | 0.455 | 0.396 | 0.54 | 0.432 | 0.399 | 0.467 | 0.445 | 0.443 | 0.504 | 0.495
6 | NCI-H2228 | 0.597 | 0.403 | 0.337 | 0.408 | 0.339 | 0.28 | 0.206 | 0.209 | 0.289 | 0.243 | 0.114 | 0.185 | 0.145 | 0.131 | 0.115 | 0.23 | 0.295 | 0.237 | 0.21 | 0.265
7 | NCI-H2170 | 0.195 | 0.187 | 0.162 | 0.16 | 0.186 | 0.229 | 0.234 | 0.159 | 0.214 | 0.198 | 0.291 | 0.175 | 0.229 | 0.316 | 0.198 | 0.464 | 0.338 | 0.481 | 0.422 | 0.421
8 | EMC-BAC-2 | 0.414 | 0.376 | 0.346 | 0.357 | 0.324 | 0.368 | 0.349 | 0.298 | 0.42 | 0.39 | 0.789 | 0.714 | 0.689 | 0.735 | 0.613 | 0.288 | 0.275 | 0.274 | 0.307 | 0.283
9 | NCI-H23 | 0.261 | 0.272 | 0.317 | 0.232 | 0.252 | 0.334 | 0.268 | 0.216 | 0.312 | 0.344 | 0.211 | 0.2 | 0.21 | 0.232 | 0.218 | 0.382 | 0.35 | 0.362 | 0.41 | 0.378
10 | RERF-LC-KJ | 0.88 | 0.674 | 0.644 | 0.588 | 0.511 | 0.345 | 0.445 | 0.214 | 0.409 | 0.238 | 0.895 | 0.834 | 0.807 | 0.848 | 0.646 | 0.449 | 0.358 | 0.313 | 0.411 | 0.429
11 | NCI-H358 | 0.136 | 0.15 | 0.129 | 0.11 | 0.128 | 0.257 | 0.241 | 0.213 | 0.257 | 0.213 | 0.325 | 0.237 | 0.196 | 0.214 | 0.206 | 0.347 | 0.337 | 0.336 | 0.34 | 0.378
12 | LC-2-ad | 0.543 | 0.572 | 0.564 | 0.561 | 0.475 | 0.456 | 0.372 | 0.386 | 0.282 | 0.283 | 1.17 | 1.05 | 0.832 | 1.08 | 0.892 | 0.669 | 0.7 | 0.602 | 0.618 | 0.569
13 | HCC-15 | 0.73 | 0.79 | 0.627 | 0.697 | 0.76 | 0.633 | 0.517 | 0.372 | 0.539 | 0.545 | 0.45 | 0.449 | 0.368 | 0.387 | 0.191 | 0.502 | 0.517 | 0.447 | 0.543 | 0.546
14 | NCI-H2405 | 0.336 | 0.351 | 0.332 | 0.381 | 0.358 | 0.265 | 0.291 | 0.294 | 0.294 | 0.275 | 0.657 | 0.548 | 0.523 | 0.52 | 0.484 | 0.505 | 0.474 | 0.532 | 0.459 | 0.488
